Key:
[1] = test system: Paw incision-induced static allodynia in rats; assay: Paw incision-induced static allodynia in rats; assay type: in vivo, Sprague-Dawley rats; settings: 30 mg/kg per os
Protocol: Paw Incision-Induced Static Allodynia in Rats
Male Sprague-Dawley rats at 7 weeks old are purchased from Charles River Japan Inc., and housed in groups of two per cage under a 12-h light/dark cycle (lights on at 07:00) with access to food and water ad libitum. Paw incision-induced static allodynia is assessed by VFH test. Surgery is performed according to the procedure described by Brennan et al. (Pain 1996, 64: 493-501). The animals are initially anesthetized with 3-4% isoflurane/O2 mixture in an anesthetic chamber and maintained with 2-3% delivered through a nose cone. The plantar surface of the right hind paw is sterilized with 7.5% povidone-iodine solution. A 1-cm longitudinal incision is made with a number 11 blade, through skin and fascia of the plantar aspect of the paw, starting 0.5 cm from the proximal edge of the heel and extending toward the toes. The plantaris muscle is elevated using forceps and retracted. The muscle origin and insertion remain intact. After hemostasis with gentle pressure, the skin is apposed with 2 sutures of 5-0 nylon. The wound site is covered with Terramycin ointment, and the rats are allowed to recover in their cages with soft bedding. The animals are individually placed in a Plexiglas test chamber on an elevated grid to acclimate for 1 hour before the day of surgery. […] The PWT is measured at the appropriated time after compound administration.

[2] = test system: CFA-induced thermal hyperalgesia in rats; assay: Complete Freund's Adjuvant (CFA)-induced thermal hyperalgesia in rats; assay type: in vivo, Sprague-Dawley rats; settings: 30 mg/kg per os
Protocol: Complete Freund's Adjuvant (CFA)-Induced Thermal Hyperalgesia in Rats
Male Sprague-Dawley rats at 6 weeks old are purchased from Charles River Japan Inc., and housed in groups of two per cage under a 12-h light/dark cycle (lights on at 07:00) with access to food and water ad libitum. CFA-induced thermal hyperalgesia is assessed using the plantar test apparatus (Ugo Basile) as described by Hargreaves K et al. (Pain 1988, 32: 77-88). The animals are placed in an apparatus consisting of individual testing box on an elevated glass table and allowed to acclimate for at least 10 minutes. Following the habituation, a mobile radiant heat source is located under the table and heat stimulation is applied to the plantar surface of the right hind paw. The latency to remove its hind paw is defined as paw withdrawal latency (PWL) in sec. The cut-off point is set at 30 seconds to prevent tissue damage. CFA is prepared at a concentration of 2-3 mg/mL of Mycobacterium tuberculosis H37 RA in liquid paraffin. After disinfections with 70% ethanol, the rats are injected intraplantarly with 100 microL of CFA (200-300 microgram) into the right hind paw. Two days after CFA injection, PWL is measured in the same manner as mentioned above. […] The PWL is measured at the appropriated time after compound administration. […]

human Nav1.3 channels = target: T1, human Nav1.3 channels (Homo sapiens, UniProt Q9NY46); assay: FRET assay, human Nav1.3 (EFS on FDSS); assay type: cell-based; settings: HEK293 cells expressing human Nav1.3, read-out: IC50 against Nav1.3
T1 construct: expressed in transfected cells; host or cells: HEK293
T1 sequence (Q9NY46 whole entry): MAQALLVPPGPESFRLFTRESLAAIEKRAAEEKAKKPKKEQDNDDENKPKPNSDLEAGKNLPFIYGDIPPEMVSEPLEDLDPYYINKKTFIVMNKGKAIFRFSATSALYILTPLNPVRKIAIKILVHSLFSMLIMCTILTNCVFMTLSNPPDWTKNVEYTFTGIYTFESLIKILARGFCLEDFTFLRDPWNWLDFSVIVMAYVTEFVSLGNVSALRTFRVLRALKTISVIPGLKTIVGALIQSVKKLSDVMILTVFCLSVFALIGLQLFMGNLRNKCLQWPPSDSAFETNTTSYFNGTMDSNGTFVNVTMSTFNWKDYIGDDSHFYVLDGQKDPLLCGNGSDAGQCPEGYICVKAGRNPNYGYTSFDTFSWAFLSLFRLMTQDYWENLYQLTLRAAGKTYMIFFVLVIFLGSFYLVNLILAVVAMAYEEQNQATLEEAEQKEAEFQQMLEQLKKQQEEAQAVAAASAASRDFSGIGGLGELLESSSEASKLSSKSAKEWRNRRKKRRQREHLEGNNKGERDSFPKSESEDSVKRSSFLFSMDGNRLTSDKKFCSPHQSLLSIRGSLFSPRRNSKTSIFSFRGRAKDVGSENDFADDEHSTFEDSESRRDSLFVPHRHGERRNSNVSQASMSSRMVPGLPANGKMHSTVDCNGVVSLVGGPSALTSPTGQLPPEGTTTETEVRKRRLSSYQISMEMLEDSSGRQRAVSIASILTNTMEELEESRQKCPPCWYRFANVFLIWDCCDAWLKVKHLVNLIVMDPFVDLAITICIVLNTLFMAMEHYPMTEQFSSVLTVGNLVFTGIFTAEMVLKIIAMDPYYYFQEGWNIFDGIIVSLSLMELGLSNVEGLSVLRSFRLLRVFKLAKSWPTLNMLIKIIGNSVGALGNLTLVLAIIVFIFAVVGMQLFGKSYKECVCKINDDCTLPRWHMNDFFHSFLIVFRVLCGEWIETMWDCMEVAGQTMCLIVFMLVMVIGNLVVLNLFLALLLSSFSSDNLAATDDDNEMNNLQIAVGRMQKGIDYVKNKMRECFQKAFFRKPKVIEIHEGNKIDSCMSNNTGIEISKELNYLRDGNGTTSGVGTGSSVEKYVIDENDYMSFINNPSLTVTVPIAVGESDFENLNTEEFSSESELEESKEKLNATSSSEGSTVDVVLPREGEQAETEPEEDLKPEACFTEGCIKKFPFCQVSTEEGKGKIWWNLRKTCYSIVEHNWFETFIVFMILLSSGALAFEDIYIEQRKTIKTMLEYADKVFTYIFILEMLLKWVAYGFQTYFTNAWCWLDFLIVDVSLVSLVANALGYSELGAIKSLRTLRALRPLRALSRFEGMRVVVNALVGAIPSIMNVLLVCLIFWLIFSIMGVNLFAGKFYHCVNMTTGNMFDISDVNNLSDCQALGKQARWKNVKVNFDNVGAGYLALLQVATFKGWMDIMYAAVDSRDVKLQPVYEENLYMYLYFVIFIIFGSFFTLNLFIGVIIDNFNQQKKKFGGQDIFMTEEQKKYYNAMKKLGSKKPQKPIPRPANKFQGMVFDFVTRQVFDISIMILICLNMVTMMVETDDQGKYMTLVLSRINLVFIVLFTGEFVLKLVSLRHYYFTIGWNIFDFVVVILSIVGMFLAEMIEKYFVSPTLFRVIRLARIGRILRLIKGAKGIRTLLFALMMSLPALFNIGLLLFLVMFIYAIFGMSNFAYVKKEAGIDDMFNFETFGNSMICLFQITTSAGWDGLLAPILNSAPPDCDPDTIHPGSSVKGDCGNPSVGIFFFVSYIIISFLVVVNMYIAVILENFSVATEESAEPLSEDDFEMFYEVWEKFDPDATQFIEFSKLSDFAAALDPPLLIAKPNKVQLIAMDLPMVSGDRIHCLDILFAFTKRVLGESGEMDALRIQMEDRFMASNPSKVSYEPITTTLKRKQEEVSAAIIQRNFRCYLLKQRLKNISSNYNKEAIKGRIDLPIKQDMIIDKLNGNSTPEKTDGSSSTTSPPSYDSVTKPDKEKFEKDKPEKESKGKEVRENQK
How it was run: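 HEK293 cells expressing the channel, loaded with 10 microM CC2-DMPE then 15 microM DiSBAC2(3) plus 0.555 mM VABSC-1 in pH 7.4 HEPES buffer at room temperature. Membrane potential changes evoked by electrical field stimulation after compound addition; IC50 from 440 nm-normalized FRET ratios.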

human Nav1.5 channels = target: T2, human Nav1.5 channels (Homo sapiens, UniProt Q14524); assay: FRET assay, human Nav1.5 (EFS on FDSS); assay type: cell-based; settings: HEK293 cells expressing human Nav1.5, read-out: activities against Nav1.5
T2 construct: expressed in transfected cells; host or cells: HEK293
T2 sequence (Q14524 whole entry): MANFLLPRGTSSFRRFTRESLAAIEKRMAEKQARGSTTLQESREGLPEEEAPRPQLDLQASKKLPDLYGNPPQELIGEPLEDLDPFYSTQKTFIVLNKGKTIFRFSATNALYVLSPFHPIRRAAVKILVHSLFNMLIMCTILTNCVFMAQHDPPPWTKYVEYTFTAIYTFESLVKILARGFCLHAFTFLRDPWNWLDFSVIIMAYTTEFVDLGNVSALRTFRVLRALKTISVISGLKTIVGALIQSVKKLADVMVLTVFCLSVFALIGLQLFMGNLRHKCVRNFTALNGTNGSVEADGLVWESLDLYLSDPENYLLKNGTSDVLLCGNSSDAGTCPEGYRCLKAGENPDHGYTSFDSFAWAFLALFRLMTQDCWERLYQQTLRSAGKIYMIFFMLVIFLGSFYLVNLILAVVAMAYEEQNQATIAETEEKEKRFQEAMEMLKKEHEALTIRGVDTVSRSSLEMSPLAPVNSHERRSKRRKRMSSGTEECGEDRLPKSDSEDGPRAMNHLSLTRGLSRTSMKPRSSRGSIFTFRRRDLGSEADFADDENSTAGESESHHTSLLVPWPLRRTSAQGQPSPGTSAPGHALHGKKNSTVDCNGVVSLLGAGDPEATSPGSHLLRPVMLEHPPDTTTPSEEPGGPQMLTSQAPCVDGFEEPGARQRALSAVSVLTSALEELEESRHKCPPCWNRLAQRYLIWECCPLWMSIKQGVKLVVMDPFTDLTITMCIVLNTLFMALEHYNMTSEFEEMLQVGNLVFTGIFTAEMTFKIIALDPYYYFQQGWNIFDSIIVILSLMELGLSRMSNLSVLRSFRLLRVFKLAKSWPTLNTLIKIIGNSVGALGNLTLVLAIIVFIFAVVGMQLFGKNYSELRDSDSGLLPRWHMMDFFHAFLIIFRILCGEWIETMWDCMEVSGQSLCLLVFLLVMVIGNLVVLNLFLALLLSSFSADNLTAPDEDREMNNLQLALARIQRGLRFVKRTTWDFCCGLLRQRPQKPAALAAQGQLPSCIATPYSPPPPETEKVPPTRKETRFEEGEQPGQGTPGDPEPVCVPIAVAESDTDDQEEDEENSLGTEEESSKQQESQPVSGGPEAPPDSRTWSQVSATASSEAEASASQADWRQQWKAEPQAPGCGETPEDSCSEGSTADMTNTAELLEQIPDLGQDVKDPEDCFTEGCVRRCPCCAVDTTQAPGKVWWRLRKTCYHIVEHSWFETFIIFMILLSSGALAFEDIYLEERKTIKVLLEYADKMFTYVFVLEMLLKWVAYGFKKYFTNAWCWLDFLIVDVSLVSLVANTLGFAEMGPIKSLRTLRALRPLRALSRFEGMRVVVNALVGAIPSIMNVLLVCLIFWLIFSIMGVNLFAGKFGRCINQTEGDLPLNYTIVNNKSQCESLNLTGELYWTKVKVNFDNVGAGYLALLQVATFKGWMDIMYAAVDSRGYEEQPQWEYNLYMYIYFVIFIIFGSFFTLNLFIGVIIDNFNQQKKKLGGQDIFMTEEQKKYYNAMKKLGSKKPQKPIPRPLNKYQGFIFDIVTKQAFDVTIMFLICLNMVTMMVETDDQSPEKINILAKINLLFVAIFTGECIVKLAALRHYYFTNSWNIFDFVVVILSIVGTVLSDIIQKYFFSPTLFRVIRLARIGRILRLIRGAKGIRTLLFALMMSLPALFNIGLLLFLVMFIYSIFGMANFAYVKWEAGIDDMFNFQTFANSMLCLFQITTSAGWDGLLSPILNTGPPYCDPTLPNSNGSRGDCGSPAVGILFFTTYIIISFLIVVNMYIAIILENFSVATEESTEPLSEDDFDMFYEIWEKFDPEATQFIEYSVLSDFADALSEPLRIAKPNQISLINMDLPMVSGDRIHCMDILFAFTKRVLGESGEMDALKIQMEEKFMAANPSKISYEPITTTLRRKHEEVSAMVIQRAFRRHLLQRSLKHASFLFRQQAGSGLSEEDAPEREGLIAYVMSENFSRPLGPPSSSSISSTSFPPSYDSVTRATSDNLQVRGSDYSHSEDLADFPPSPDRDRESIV
Protocol: The inhibitory activities of compounds against voltage gated sodium channels are determined by methodology well known in the art.
The ability of the aryl substituted carboxamide derivatives of the formula (I) to inhibit the NaV1.3, Nav1.7 and Nav1.5 channels is measured by Fluorescence Resonance Energy Transfer (FRET) assay and electrophysiology assay described below.
This screen is used to determine the effects of compounds on human Nav1.3, human Nav1.7, and human Nav1.5 channels, utilising electrical field stimulation (EFS) system in 96-well plate format on FDSS (Hamamatsu Photonics) platform. The change of membrane potential is monitored with FRET dye pair, oxonol (DiSBAC2(3)) and coumarin (CC2-DMPE).
Each HEK293 cells expressing human Nav1.3 channels and HEK293 cells expressing human Nav1.5 channels are grown in T225 flasks, in a 5% CO2 humidified incubator to about 80% confluence. Media composition consists of Dulbecco's Modified Eagle Medium (high glucose), 10% FCS, 100 units/mL Penicillin, 100 microgram/mL Streptomycin and 500 microgram/mL Geneticine. […]
The data are analyzed and reported as normalized ratios of intensities measured at […]. […]
This analysis is performed using a computerized specific program designed for FDSS generated data. Fluorescence ratio values are plotted using XLfit to determine an IC50 value for each compound.

What does the source list for `CC(=O)Nc1cc(C(=O)NC(C)c2ccc(OCC(F)(F)F)nc2)ccn1` (single isomer, unassigned; (-)) [Example 1, (−)-2-acetamido-N-(1-(6-(2,2,2-trifluoroethoxy)pyridin-3-yl)ethyl)isonicotinamide]?
activity in paw incision-induced static allodynia (PWT) [1]: significant activity; activity in CFA-induced thermal hyperalgesia (PWL) [2]: significant activity; IC50 (human Nav1.3 channels): 2.8 µM; IC50 (human Nav1.5 channels): > 30 µM

Source: patent publication US9302991B2, “Arylamide derivatives as TTX-S blockers” (RaQualia Pharma Inc., priority 2010, dated 2016)
